# Source: patent EP4005570B1, “P[…] USE IN TREATING RETT SYNDROME” (Prilenia Neurotherapeutics Ltd., priority 2016, dated 2018)
# Where “and” joins values, the source holds several entries; their conditions need not be identical. Identical values can stand only once. Like-named read-outs stand apart in the source and are kept apart here.
# Columns and labels:
# [1] = test system: female MeCP2 (BIRD) mouse model of RTT; conditions: for startle response: vs vehicle-treated HET mice
# Description: (§1) Dosing commenced when mice were ~5.5 weeks of age and continued through the end of behavioral testing. Behavioral testing was done at 8 and 12 weeks of age.
# (§2) Female MeCP2 ([…], HET) mice and wild type (MeCP2_WT, WT) littermates were received in two cohorts at ~4.5 weeks of age from Jackson Laboratories. They were assigned unique identification numbers and group-housed in opti-MICE cages (Animal Care Systems, CO). All animals were examined and weighed prior to initiation and throughout the study to assure adequate health and suitability and to minimize nonspecific stress associated with manipulation. During the course of the study, 12/12 light/dark cycle was maintained. The room temperature was maintained between 20 and 23°C with a relative humidity maintained around 50%. Chow and water was provided ad libitum for the duration of the study. The tests were performed during the animal's light cycle phase.
# Mice were placed in the PPI chambers (Med Associates) for a 5 min session of white noise (70 dB) habituation.
# The inter-trial interval was variable with an average of 15 s (range from 10 to 20 s).
# (§3) Data from standard tests were analyzed by genotype (t-test) and by treatment (ANOVA) followed by post-hoc comparisons where appropriate. For some measures (i.e. body weights and PPI), repeated-measures ANOVAs were performed. For clasping data, N-1 two-proportional tests were performed. An effect was considered significant if p < 0.05. All data are represented as the mean and standard error to the mean (s.e.m). Values ± 2 standard deviations from the mean were considered outliers.
# neuroblastoma cell line = conditions: S1R-dependent manner (Geva 2016); cited from earlier work
# [2] = test system: patient afflicted with RTT; conditions: periodic administration (daily or twice daily), intravenously or orally
# BDNF = conditions: whole brain; 3 and 30 mg/kg BID; vs MeCP2_HET vehicle
# Description: Mice were euthanized via cervical dislocation and decapitated. From 10 mice/treatment group, whole brains were collected, weighed, and then frozen on dry ice. Samples were stored at - 80°C until analysis of brain-derived neurotrophic factor (BDNF).
# Once tissues were disrupted, samples were allowed to incubate at room temperate for 5 minutes.
# Briefly, 150µL of Chloroform (Cat # C2432, Sigma-Aldrich, St. Louis, MO) was added and samples were shaken vigorously for 15 seconds followed by 3-minute incubation at room temperature. The aqueous phase was separated from the organic phase by centrifugation at 6,000 x g (Beckman Coulter Avanti J-30I), 4°C for 15 minutes. The aqueous phase was then transferred to a new 96-well block and total RNA was precipitated with equal volume of 70% ethanol. Content was transferred to an RNeasy 96-well plate, followed by centrifuge at 6,000-x g (Beckman Coulter Avanti J-30I), at room temperate for 4 minutes. […] RNA was eluted with RNase-Free water.
# Samples were quantified using NanoDrop 8000 (Thermo Scientific). […]
# Relative quantity of the PCR product (relative to the calibrator) was calculated as follows: [formula] […]
# Geometric mean for the three housekeeping genes was calculated as follows: [formula]
# Relative level of target gene was calculated as follows: Relative Quantity of Target gene÷Geometric mean of housekeeping genes [formula] […]
# [3] = test system: female MeCP2 (BIRD) mouse model of RTT
# Description: as §1, §2, §3
# [4] = test system: female MeCP2 (BIRD) mouse model of RTT; conditions: for Recovery (%) Gait / Recovery (%) Paw Features / Recovery (%) Paw Positioning / Recovery (%) Body Motion / Recovery (%) Rhythmicity: HET mice
# Description: as §1, §2
# Mice were placed in the NeuroCube for a 5 min test. The most dominant of the features collected that define the disease phenotype (symptom descriptors) was identified and ranked. Complex bioinformatic algorithms were employed to calculate the discrimination probability between the WT and the BIRD mice and detect a test compound's ability to reverse the disease phenotype. Discriminations between mutant and wild type was calculated as well as the recovery of disease features in HET mice treated with the test compound.
# The output of NeuroCube is a set of dozens of behavioral features that are submitted for analysis with machine learning techniques used in bioinformatics. Many of these features are correlated (e.g. rearing counts and supported rearing counts). Therefore, PGI forms statistically independent combinations of the original features (further referred to as de-correlated features) that discriminate between the two groups more effectively.
# Each de-correlated feature extracts information from the whole cluster of the original features, so the new feature space has lower dimensionality. Next, PGI applies a proprietary feature ranking algorithm to score each feature's discrimination power (ability to separate the two groups, e.g. control and disease).
# Ranking is an important part of the analyses because it weighs each feature change by its relevance: if there is a significant change in some irrelevant feature measured for a particular phenotype, the low rank of this feature will automatically reduce the effect of such change in the analyses, so there is no need to resort to the conventional "feature selection" approach and discard information buried in the less informative features. Ranking algorithm can be applied to either original or the new features to gain insight about the key control-disease differences (see Figure 1).
# In the new feature space, the overlap between the "clouds" (Gaussian distributions approximating the groups of mice in the ranked de-correlated features space) serves as a quantitative measure of separability ("distinguishability") between the two groups (see Figure 2). For visualization purposes, each cloud was plotted with its semi-axes equal to the one standard deviation along the corresponding dimensions.
# [5] = 12 weeks, 30 mg/kg BID, 30 mg/kg
# [6] = 12 weeks, 30 mg/kg BID, listed as pridopidine, 30 mg/kg
smiles,measurement,setting,value
"CCCN1CCC(c2cccc(S(C)(=O)=O)c2)CC1 [Pridopidine, 4-[3-(methylsulfonyl)phenyl]-1-propyl-piperidine]",startle response,"[1]; 3 mg/kg BID, both ages (8 and 12 weeks)",increased startle response
same,startle response,[1]; 30 mg/kg BID,did not have a significant effect
same,prepulse inhibition response,"[1]; 3 and 30 mg/kg BID, HET mice",No genotype or treatment effects were observed
same,secretion of the neuroprotective brain-derived neurotrophic factor (BDNF),neuroblastoma cell line,enhances secretion
same,treatment of the patient afflicted with RTT,[2],effective to treat the patient
same,BDNF I mRNA expression,BDNF,None of the treatments had a significant effect
same,BDNF VI mRNA expression,BDNF,None of the treatments had a significant effect
same,hindlimb clasping,"[3]; 3 mg/kg BID, 8 and 12 weeks, vs HET-vehicle",did not have a significant effect
same,hindlimb clasping,"[3]; 30 mg/kg BID, 12 weeks",this effect was not seen
same,gait measures,"[4]; 3 mg/kg BID, compared with vehicle-treated mutants, age not stated",differed significantly
same,recovery of overall gait features,"[4]; 3 mg/kg, 8 weeks of age, Figure 8A",no recovery
same,recovery of overall gait features,"[4]; 3 mg/kg, 12 weeks of age, Figure 9A",no recovery
same,recovery of overall gait features,"[4]; 30 mg/kg, 8 weeks of age, Figure 8B",45% and 55%
same,recovery of overall gait features,"[4]; 30 mg/kg, 8 weeks of age, Figure 8B, listed as pridopidine",significant recovery
same,recovery of overall gait features,"[4]; 30 mg/kg, 12 weeks of age, Figure 9B",55%
same,Recovery (%) Gait,"[4]; 8 weeks, 3 mg/kg BID",38%
same,Recovery (%) Paw Features,"[4]; 8 weeks, 3 mg/kg BID",0%
same,Recovery (%) Paw Positioning,"[4]; 8 weeks, 3 mg/kg BID",8%
same,Recovery (%) Body Motion,"[4]; 8 weeks, 3 mg/kg BID, 3 mg/kg",82%
same,Recovery (%) Body Motion,"[4]; 8 weeks, 3 mg/kg BID, listed as pridopidine, 3 mg/kg",showed efficacy
same,Recovery (%) Gait,"[4]; 8 weeks, 30 mg/kg BID",71%
same,Recovery (%) Paw Features,"[4]; 8 weeks, 30 mg/kg BID",63%
same,Recovery (%) Paw Positioning,"[4]; 8 weeks, 30 mg/kg BID",35%
same,Recovery (%) Body Motion,"[4]; 8 weeks, 30 mg/kg BID, 30 mg/kg",84%
same,Recovery (%) Body Motion,"[4]; 8 weeks, 30 mg/kg BID, listed as pridopidine, 30 mg/kg",showed efficacy
same,Recovery (%) Gait,"[4]; 12 weeks, 3 mg/kg BID",60%
same,Recovery (%) Paw Features,"[4]; 12 weeks, 3 mg/kg BID",0%
same,Recovery (%) Paw Positioning,"[4]; 12 weeks, 3 mg/kg BID",35%
same,Recovery (%) Rhythmicity,"[4]; 12 weeks, 3 mg/kg BID",41%
same,Recovery (%) Body Motion,"[4]; 12 weeks, 3 mg/kg BID, 3 mg/kg",65%
same,Recovery (%) Body Motion,"[4]; 12 weeks, 3 mg/kg BID, listed as pridopidine, 3 mg/kg",showed efficacy
same,Recovery (%) Paw Features,"[4]; 12 weeks, 30 mg/kg BID",69%
same,Recovery (%) Paw Positioning,"[4]; 12 weeks, 30 mg/kg BID",52%
same,Recovery (%) Rhythmicity,"[4]; 12 weeks, 30 mg/kg BID",10%
same,Recovery (%) Body Motion,[4]; [5],59%
same,Recovery (%) Gait,[4]; [5],100%
same,Recovery (%) Body Motion,[4]; [6],showed efficacy
same,Recovery (%) Gait,[4]; [6],Significant effects
